The target of this test is T1, WT/R232 STING protein (Homo sapiens, UniProt Q86WV6, H232R).
T1 construct: host or cells: HEK293T
The test can be described thus: Luciferase reporter assay in HEK293T-hSTING-Luciferase cells, WT/R232. In kind it is cell-based. The following applies: 20 hr stimulation, read-out: R232 Activity (EC50 range). The essentials: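 Clonal HEK293T cells stably expressing human STING R232 plus an ISRE/ISG54-driven luciferase reporter, 5×10^5 per well, stimulated with compounds for 20 h. Secreted luciferase in supernatant measured by luminescence; […].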
For orientation: In a reporter assay the amount or activity of a reporter protein is the signal.

The source of these data is US20200138827A1, “SMALL MOLECULE MODULATORS OF HUMAN STING” (Curadev Pharma Limited, priority 2017, published 2020).

A word on the EC50: it is the concentration at which the effect is half-maximal.

Where only a bound is given, the exact number is not on record here.

T1 sequence (Q86WV6 whole entry H232R): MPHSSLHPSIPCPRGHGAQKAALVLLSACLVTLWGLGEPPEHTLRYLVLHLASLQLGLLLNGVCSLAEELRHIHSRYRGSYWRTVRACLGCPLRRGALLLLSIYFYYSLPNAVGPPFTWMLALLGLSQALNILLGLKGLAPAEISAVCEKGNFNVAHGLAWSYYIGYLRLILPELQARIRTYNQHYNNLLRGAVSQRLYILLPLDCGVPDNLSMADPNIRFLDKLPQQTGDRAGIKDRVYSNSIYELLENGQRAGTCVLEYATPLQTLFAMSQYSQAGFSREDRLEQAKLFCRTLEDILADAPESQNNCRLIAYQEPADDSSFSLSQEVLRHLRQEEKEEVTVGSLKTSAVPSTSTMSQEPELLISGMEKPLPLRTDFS

For the molecule `O=C(NCc1ccco1)c1ccc2c(c1)N(Cc1c(F)cccc1Cl)C(=O)C[S+]2[O-]` (stereo not shown) [Example 245, 4-(2-chloro-6-fluorobenzyl)-N-(furan-2-ylmethyl)-3-oxo-3,4-dihydro-2H-benzo[b][1,4]thiazine-6-carboxamide 1-oxide], the EC50 was more than 10 µM.
For `O=C(NCc1ccco1)c1ccc2c(c1)N(C(=O)c1c(F)cccc1Cl)CCO2` [Example 265, 4-(2-chloro-6-fluorobenzoyl)-N-(furan-2-ylmethyl)-3,4-dihydro-2H-benzo[b-1,4]oxazine-6-carboxamide] the value was more than 10 µM.
For `O=C(NC(Cc1ccccc1)c1ccccc1)c1ccc2c(c1)N(Cc1ccccc1)C(=O)CS2` (stereo not shown) [Example 79, 4-benzyl-N-(1,2-diphenylethyl)-3-oxo-3,4-dihydro-2H-benzo[b-1,4]thiazine-6-carboxamide] the value was more than 10 µM.
For `O=C(NCc1c(F)cc(F)cc1F)c1ccc2c(c1)N(Cc1c(F)cc(O)cc1F)C(=O)CS2` [Example 115, 4-(2,6-difluoro-4-hydroxybenzyl)-3-oxo-N-(2,4,6-trifluorobenzyl)-3,4-dihydro-2H-benzo[b][1,4] thiazine-6-carboxamide] the value was less than 1 µM; for `CC1Sc2ncc(C(=O)NCc3cnccn3)cc2N(Cc2cc(F)cc(F)c2)C1=O` (stereo not shown) [Example 217, 1-(3,5-difluorobenzyl)-3-methyl oxo-N-(pyrazin-2-ylmethyl)-2,3 dihydro-1H-pyrido[2,3-b][1,4]thiazine-7-carboxamide], more than 10 µM.
As for `O=C(NCc1ccco1)c1ccc2c(c1)N(Cc1cccc(OC(F)(F)F)c1)C(=O)CS2` [Example 88, N-(furan-2-ylmethyl)-3-oxo-4-(3-(trifluoromethoxy)benzyl)-3,4-dihydro-2H-benzo[b-1,4]thiazine-6-carboxamide], the EC50 is more than 10 µM.
For `O=C(NCc1ccc(C(F)(F)F)cc1)c1ccc2c(c1)N(Cc1ccccc1)C(=O)CS2` [Example 72, 4-benzyl-3-oxo-N-(4-(trifluoromethyl)benzyl)-3,4-dihydro-2H-benzo[b-1,4]thiazine-6-carboxamide] the value was more than 10 µM; for `O=C(NCc1ccco1)c1ccc2c(c1)N(Cc1cccc3ccccc13)C(=O)CS2` [Example 14, N-(furan-2-ylmethyl)-4-(naphthalen-1-ylmethyl)-3-oxo-3,4-dihydro-2H-benzo[b-1,4]thiazine-6-carboxamide], 1 to 10 µM; for `O=C(NCc1ccccn1)c1ccc2c(c1)N(Cc1c(F)cccc1Cl)C(=O)CS2` [Example 108, 4-(2-chloro-6-fluorobenzyl)-3-oxo-N-(pyridin-2-ylmethyl)-3,4-dihydro-2H-benzo[b-1,4]thiazine-6-carboxamide], more than 10 µM.
For `C[C@@H]1Oc2ncc(C(=O)NCc3c(F)cc(F)cc3F)cc2N(Cc2cc(F)cc(F)c2)C1=O` [Example 237, (S)-1-(3,5-difluorobenzyl)-3-methyl-2-oxo-N-(2,4,6-trifluorobenzyl)-2,3-dihydro-1H-pyrido[2,3-b-1,4]oxazine-7-carboxamide] the value was 1 to 10 µM; for `Cc1cccc(CN2C(=O)CSc3ccc(C(=O)NCC4CCCCC4)cc32)c1C` [Example 25, N-(cyclohexyl-methyl)-4-(2,3-dimethyl-benzyl)-3-oxo-3,4-dihydro-2H-benzo[b-1,4]thiazine-6-carboxamide], more than 10 µM.
The value for `CC(NC(=O)c1ccc2c(c1)N(Cc1ccccc1F)C(=O)CS2)C12C[C@H]3C[C@@H](C1)C[C@@H](C2)C3` (stereo partly shown) [Example 23, N-(1-((3r,5r,7r)-adamantan-1-yl)ethyl)-4-(2-fluorobenzyl)-3-oxo-3,4-dihydro-2H-benzo[b-1,4]thiazine-6-carboxamide] was more than 10 µM; that for `Cn1cccc1CNC(=O)c1ccc2c(c1)N(Cc1ccccc1)C(=O)CS2` [Example 10, 4-benzyl-N-((1-methyl-1H-pyrrol-2-yl)methyl)-3-oxo-3,4-dihydro-2H-benzo[b-1,4]thiazine-6-carboxamide] was more than 10 µM; that for `COc1ccccc1CNC(=O)c1ccc2c(c1)N(Cc1ccccc1)C(=O)CS2` [Example 116, 4-benzyl-N-(2-methoxybenzyl)-3-oxo-3,4-dihydro-2H-benzo[b-1,4]thiazine-6-carboxamide] was more than 10 µM.
In the case of `O=C(NCc1cccc(F)c1)c1ccc2c(c1)N(Cc1c(F)cccc1Cl)C(=O)CS2` [Example 38, 4-(2-chloro-6-fluorobenzyl)-N-(3-fluorobenzyl)-3-oxo-3,4-dihydro-2H-benzo[b-1,4]thiazine-6-carboxamide], the EC50 lay in the range of 1 to 10 µM.
For `N#CCC(CNC(=O)c1ccc2c(c1)N(Cc1c(F)cccc1Cl)C(=O)CS2)c1ccccc1` (stereo not shown) [Example 41, 4-(2-chloro-6-fluorobenzyl)-N-(3-cyano-2-phenylpropyl)-3-oxo-3,4-dihydro-2H-benzo[b-1,4]thiazine-6-carboxamide] the value was more than 10 µM; for `N#Cc1ccc(CNC(=O)c2ccc3c(c2)N(Cc2ccccc2)C(=O)CS3)cc1` [Example 71, 4-benzyl-N-(4-cyanobenzyl)-3-oxo-3,4-dihydro-2H-benzo[b-1,4]thiazine-6-carboxamide], 1 to 10 µM; for `O=C(NC1(c2ccccc2)CCCC1)c1ccc2c(c1)N(Cc1ccccc1)C(=O)CS2` [Example 75, 4-benzyl-3-oxo-N-(1-phenylcyclopentyl)-3,4-dihydro-2H-benzo[b-1,4]thiazine-6-carboxamide], more than 10 µM.
For the molecule `CC1(F)Sc2ccc(C(=O)NCc3c(F)cc(F)cc3F)cc2N(Cc2c(F)cccc2Cl)C1=O` (stereo not shown) [Example 165, 4-(2-chloro-6-fluorobenzyl)-2-fluoro-2-methyl-3-oxo-N-(2,4,6-trifluorobenzyl)-3,4-dihydro-2H-benzo[b][1,4] thiazine-6-carboxamide], the EC50 was more than 10 µM.
With `O=C(NCc1ccco1)c1cc2c(cn1)SCC(=O)N2Cc1c(F)cccc1Cl` [Example 182, 1-(2-chloro-6-fluorobenzyl)-N-(furan-2-ylmethyl)-2-oxo-2,3-dihydro-1H-pyrido[3,4-b-1,4]thiazine-7-carboxamide], the EC50 was more than 10 µM.
On to `O=C(NCc1ccco1)c1ccc2c(c1)N(Cc1cn3ccsc3n1)C(=O)CS2` [Example 104, N-(furan-2-ylmethyl)-4-(imidazo[2,1-b]thiazol-6-ylmethyl)-3-oxo-3,4-dihydro-2H-benzo[b-1,4]thiazine-6-carboxamide], for which the EC50 is more than 10 µM.
In the case of `O=C(NCc1ccco1)c1ccc2c(c1)N(CCc1ccccc1Cl)C(=O)CS2` [Example 89, 4-(2-chlorophenethyl)-N-(furan-2-ylmethyl)-3-oxo-3,4-dihydro-2H-benzo[b-1,4]thiazine-6-carboxamide], the EC50 is more than 10 µM.
For the molecule `O=C(NCc1ccsc1)c1ccc2c(c1)N(Cc1ccccc1)C(=O)CS2` [Example 61, 4-benzyl-3-oxo-N-(thiophen-3-ylmethyl)-3,4-dihydro-2H-benzo[b-1,4]thiazine-6-carboxamide], the EC50 lay within 1 to 10 µM.
For `O=C(NCc1c(F)cc(F)cc1F)c1cnc2c(c1)N(Cc1cc(F)cc(F)c1)C(=O)CO2` [Example 236, 1-(3,5-difluorobenzyl)-2-oxo-N-(2,4,6-trifluorobenzyl)-2,3-dihydro-1H-pyrido[2,3-b-1,4]oxazine-7-carboxamide] the value was more than 10 µM.
The value for `NC(=O)c1cc(C(=O)NCc2c(F)cc(F)cc2F)cc2c1SCC(=O)N2Cc1ccc(F)cc1` [Example 225, 4-(4-fluorobenzyl)-3-oxo-N6-(2,4,6-trifluorobenzyl)-3,4-dihydro-2H-benzo[b][1,4] thiazine-6,8-dicarboxamide] was more than 10 µM; that for `O=C(NCc1ccc(F)cc1F)c1ccc2c(n1)N(Cc1ccc(F)cc1)C(=O)CC2` [Example 282, N-(2,4-difluorobenzyl)-8-(4-fluorobenzyl)-7-oxo-5,6,7,8-tetrahydro-1,8-naphthyridine-2-carboxamide] was 1 to 10 µM.
In the case of `O=C(NCc1c(F)cc(F)cc1F)c1ccc2c(c1)N(S(=O)(=O)c1ccccc1)CCS2` [Example 261, 4-(Phenylsulfonyl)-N-(2,4,6-trifluorobenzyl)-3,4-dihydro-2H-benzo[b-1,4]thiazine-6-carboxamide], the EC50 lay in the range of 1 to 10 µM.
The value for `CC1Sc2ncc(C(=O)NCc3cc4ccccc4o3)cc2N(Cc2cc(F)cc(F)c2)C1=O` (stereo not shown) [Example 208, N-(benzofuran-2-ylmethyl)-1-(3,5-difluorobenzyl)-3-methyl-2-oxo-2,3-dihydro-1H-pyrido[2,3-b][1,4] thiazine-7-carboxamide] was more than 10 µM; that for `Cc1ccc(CNC(=O)c2ccc3c(c2)N(Cc2ccccc2)C(=O)CS3)o1` [Example 62, 4-benzyl-N-((5-methylfuran-2-yl)methyl)-3-oxo-3,4-dihydro-2H-benzo[b-1,4]thiazine-6-carboxamide] was 1 to 10 µM.
In the case of `O=C(NCc1ccco1)c1ccc2c(c1)N(Cc1cccnc1)C(=O)CS2` [Example 27, N-(furan-2-ylmethyl)-3-oxo-4-(pyridin-3-ylmethyl)-3,4-dihydro-2H-benzo[b-1,4]thiazine-6-carboxamide], the EC50 is more than 10 µM.
The value for `Cc1cccc(CNC(=O)c2ccc3c(c2)N(Cc2ccccc2)C(=O)CS3)c1` [Example 76, 4-benzyl-N-(3-methylbenzyl)-3-oxo-3,4-dihydro-2H-benzo[b-1,4]thiazine-6-carboxamide] was more than 10 µM; that for `O=C(NCc1ccco1)c1ccc2c(c1)N(Cc1ccccc1Cl)C(=O)CS2` [Example 1, 4-(2-chlorobenzyl)-N-(furan-2-ylmethyl)-3-oxo-3,4-dihydro-2H-benzo[b-1,4]thiazine-6-carboxamide] was more than 10 µM; that for `CC1CN(C(=O)Cc2ccccc2)c2cc(C(=O)NCc3c(F)cc(F)cc3F)ccc2S1` (stereo not shown) [Example 259, 2-methyl-4-(2-phenylacetyl)-N-(2,4,6-trifluorobenzyl)-3,4-dihydro-2H-benzo[b][1,4]thiazine-6-carboxamide] was more than 10 µM.
The value for `O=C(NCC1CCCC1)c1ccc2c(c1)N(Cc1c(F)cccc1Cl)C(=O)CS2` [Example 35, 4-(2-chloro-6-fluorobenzyl)-N-(cyclopentyl-methyl)-3-oxo-3,4-dihydro-2H-benzo[b][1,4] thiazine-6-carboxamide] was more than 10 µM.
